According to patent US9669104B2, “Nanocomplex containing amphipathic peptide useful for efficient transfection of biomolecules” (Council of Scientific and Industrial Research, priority 2012, dated 2017):
“Also recorded” adds a separate entry of the source.

What was measured:
[1] = Size and zeta potential of nanocomplexes by DLS; assay type: physicochemical; settings: nanocomplexes with DNA at charge ratio 10, DNA 25 ng/μl; for Size (nm): deionized water, 25° C.
Method: The mean hydrodynamic diameter and zeta potential of nanocomplexes prepared at charge 10.0 at 25 ng/μl of DNA concentration in deionized water were measured by Zeta sizer Nano ZS (Malvern Instruments, UK) at a fixed angle of 173° at 25° C. Minimum of 3 readings were recorded for each sample with replicates. As presented in Table-2 all the peptides were able to make nanocomplexes with DNA. The size of nanocomplexes was ranging from 50 to 110 nm and Zeta potential was ranging from 30 to 60 mV.
The mean hydrodynamic diameter and zeta potential of nanocomplex (Table 2) prepared at charge 10 at 25 ng/μl of DNA concentration in deionized water were measured by Zeta sizer Nano ZS (Malvern Instruments, UK) at a fixed angle of 173° at 25° C. Minimum of 3 readings were recorded for each sample with replicates. All five invented peptides were able to Make monodisperse nanocomplex with sizes ranging from 50 nm to 110 nm with DNA.

[2] = tested on: CHO-K1 cells; assay: Cellular uptake of small RNA (Siglo) by flow cytometry; assay type: cell-based, Chinese hamster; settings: Siglo non-covalently complexed; for small RNA delivery: charge ratio 5; for uptake of the small RNA (fluorescence positive cells): charge ratio 5, CHO-K1, 4 h
Method: (§1) The uptake of the small RNA, which is noncovalently complexed with the peptides, was almost 100% in CHO-K1 cells at charge ratio 5 for Mgpe-9 and Mgpe-10. Siglo was used as a model small RNA. This RNA was used to prepare the nanocomplexes with the peptide at charge ratio 5.0. Chinese hamster ovary cells (CHO-K1) were maintained in Ham's F-12K media supplemented with 10% (v/v) Fetal bovine serum (Life Technologies, USA); at 37° C. and 5% CO2 in humidified incubator. Cells were grown in 24 well plate which was seeded 24 h before use. At a confluency of 70-80% the cells were treated with labelled nanocomplexes for 4 h at 37° C. After incubation, the media was removed and cells were washed twice with PBS supplemented with heparin (1 mg/ml). The cells were then treated with trypsin (0.25%) for 5-10 min and harvested in complete media, pelleted down, washed with PBS, resuspended in PBS having 1% BSA and then analyzed on FACS-Calibur™ (Becton Dickinson, USA) using CellQuest. Pro software. The labelled nanocomplexes were excited using 488 nm laser and detected with 530/30 nm (FL1) band pass filter. In each case total 10,000 events were acquired. Percentage of fluorescence positive cells was plotted as bars and their mean intensity was plotted as a line.
as §1, with “Siglo” for “The uptake of the small RNA, which is noncovalently complexed with the peptides, was almost 100% in CHO-K1 cells at charge ratio 5 for Mgpe-9 and Mgpe-10. Siglo”, “RNA” for “RNA.”, “plates” for “plate”, “CellQuest” for “CellQuest.”, “line. The uptake of the small RNA, which is noncovalently complexed with the peptides, was almost 100% in CHO-K1 cells at charge ratio 5 for Mgpe-9 and Mgpe-10. […] Nanocomplex containing invented peptide can carry biomolecules in the range of 20 bp to 7 kbp size.” for “line.”

[3] = tested on: CHO-K1 cells; assay: Luciferase transfection efficiency in CHO-K1 cells; assay type: cell-based, Chinese hamster
Description: The transfection efficiency in terms of reporter gene expression has been checked using luciferase reporter assay. A plasmid (pMIR-Report™ Luciferase) containing luciferase gene was complexed with the peptide and transfected to the cell. The nanocomplexes were made at different charge ratios and transfected in a wide range of cell lines. CHO-K1 cells were maintained in Ham's F-12K media and MCF-7 and A549 cells in low glucose DMEM supplemented with 10% (v/v) Fetal bovine serum (Life Technologies, USA); at 37° C. and 5% CO2 in humidified incubator. Cells were seeded 24 h before transfection in 24-well plates. Nanocomplexes were prepared with final DNA concentration of 20 ng/μl and incubated for 1 h at room temperature. 100 μl of nanocomplex was added to cells at ˜70% confluency in serum-free media (OptiMEM, Invitrogen). After 5 h of incubation at 37° C. and 5% CO2 in humidified incubator, the media was aspirated; cells were washed with phosphate buffered saline (PBS, pH 7.4) and supplemented with 500 μl of complete growth medium. After 24 h, cells were washed with PBS and lysed with 100 μl of cell culture lysis buffer (1×CCLR, Promega). Luciferase expression was measured in 50 μl of cell lysate supernatant using the luciferase assay substrate (Promega). Light emission was measured by integration over 1 Os in Orion microplate luminometer (Berthold Detection System, Germany). Luciferase activity was normalized with total protein content of the cells estimated using BCA protein assay (Pierce).
CHO-K1 cells were maintained in Ham's F-12K media and MCF-7 and A549 cells in low glucose DMEM supplemented with 10% (v/v) Fetal bovine serum (Life Technologies, USA); at 37° C. and 5% CO2 in humidified incubator. Cells were seeded 24 h before transfection in 24-well plates. A plasmid (pMIR-Report™ Luciferase) containing luciferase gene was complexed with the peptide and transfected to the cell. The nanocomplexes were made at different charge ratios and transfected in a wide range of cell lines. Nanocomplexes were prepared with final DNA concentration of 20 ng/μl and incubated for 1 h at room temperature. 100 μl of nanocomplex was added to cells at 70% confluency in serum-free media (OptiMEM, Invitrogen). Cellfectin, Superfect and Lipofectamine2000 used as manufacturer protocol. In case of transfection in presence of serum, nanocomplexes were added in complete media. […] Luciferase expression was measured in 50 μl of cell lysate supernatant using the luciferase assay substrate (Promega). Light emission was measured by integration over 10 s in Orion micro plate luminometer (Berthold Detection System, Germany). […]

[4] = tested on: MCF-7; assay: Luciferase transfection efficiency in MCF-7 cells; assay type: cell-based; settings: MCF-7, charge ratio 5
Description: (§2) The transfection efficiency in terms of reporter gene expression has been checked using luciferase reporter assay. A plasmid (pMIR-Report™ Luciferase) containing luciferase gene was complexed with the peptide and transfected to the cell. The nanocomplexes were made at different charge ratios and transfected in a wide range of cell lines. CHO-K1 cells were maintained in Ham's F-12K media and MCF-7 and A549 cells in low glucose DMEM supplemented with 10% (v/v) Fetal bovine serum (Life Technologies, USA); at 37° C. and 5% CO2 in humidified incubator. Cells were seeded 24 h before transfection in 24-well plates. […] Luciferase expression was measured in 50 μl of cell lysate supernatant using the luciferase assay substrate (Promega). Light emission was measured by integration over 1 Os in Orion microplate luminometer (Berthold Detection System, Germany). […]
(§3) CHO-K1 cells were maintained in Ham's F-12K media and MCF-7 and A549 cells in low glucose DMEM supplemented with 10% (v/v) Fetal bovine serum (Life Technologies, USA); at 37° C. and 5% CO2 in humidified incubator. […] Luciferase expression was measured in 50 μl of cell lysate supernatant using the luciferase assay substrate (Promega). Light emission was measured by integration over 10 s in Orion micro plate luminometer (Berthold Detection System, Germany). […]

[5] = tested on: A549; assay: Luciferase transfection efficiency in A549 cells; assay type: cell-based; settings: A549, charge ratio 5
Description: as §2, §3

[6] = tested on: CHO-K1 cells; assay: Transfection in presence of 10% serum; assay type: cell-based, Chinese hamster; settings: CHO-K1, charge ratio 20

| Sequence | PDI [1] | Zeta potential(mV) [1] [mV] | Size (nm) [1] [nm] | small RNA delivery [2] | uptake of the small RNA (fluorescence positive cells) [2] [%] | transfection efficiency compared with Cellfectin, Superfect and Lipofectamine 2000 ([3]; CHO-K1, charge ratio 5) | transfection efficiency (luciferase) ([3]; CHO-K1, charge ratio 5, plasmid DNA non-covalently complexed) | transfection efficiency (luciferase) [4] | transfection efficiency (luciferase) [5] | transfection efficiency in presence of serum [6] | transfection efficiency compared with Cellfectin and Superfect ([3]; CHO-K1, charge ratio 5) | transfection efficiency compared with Cellfectin and Superfect ([3]; CHO-K1, charge ratio 10) |
| --- | --- | --- | --- | --- | --- | --- | --- | --- | --- | --- | --- | --- |
| CLLYWFRRRHRHHRRRHRRC [Mgpe-10, Mgpe-4 with a cysteine residue at each end] | 0.206 ± 0.004 | 57.6 ± 3.2 | 66.2 ± 0.7 | found to show small RNA delivery | ~100 | – | – | – | – | – | – | – |
| CRRLRHLRHHYRRRWHRFRC [Mgpe-9, Mgpe-3 with a cysteine residue at each end] | 0.169 ± 0.002 | 43.4 ± 0.1 | 75.8 ± 3.8 | found to show small RNA delivery | ~100 | higher or equal transfection efficiency; also recorded: highest transfection efficiency | more than 10^8 RLU/mg protein | more than 10^8 RLU/mg protein | more than 10^6 RLU/mg protein | up to 10^7 RLU/mg protein | – | – |
| LLYWFRRRHRHHRRRHRR [Mgpe-4, primary amphipathic peptide by rearrangement of the amino acids of Mgpe-3] | 0.155 ± 0.010 | 25.4 ± 0.2 | 62.8 ± 7.0 | – | – | – | – | – | – | – | higher or equal transfection efficiency | – |
| RRLRHLRHHYRRRWHRFR [Mgpe-3] | 0.152 ± 0.014 | 33.5 ± 5.9 | 63.2 ± 4.5 | – | – | – | – | – | – | – | – | higher or equal transfection efficiency |
| SRLSHLRHHYSKKWHRFR (listed as Homo sapiens) [Mgpe-1, 18 mer amphipathic peptide derived from Human Protein phosphatase 1E; tested as nanocomplex with plasmid DNA] | 0.151 ± 0.031 | 36.5 ± 0.8 | 80.1 ± 7.3 | – | – | – | – | – | – | – | – | – |
